# “And” between values parts separate entries of the source, which are not always exact repeats. Equal values may be shown once.
# Legend:
# [1] = test system: E. coli (ATCC 25922); test: In vitro anti-E. coli CFU assay; type: cell-based, Escherichia coli; settings: pH 5.4; for CFU decrease/increase with respect to untreated controls / mean CFU number ± S.D.: metal salt alone, one value per peptide panel
# Method: (§1) All microbes were grown at 37 °C in Tryptic Soy Broth (TSB; Biolife, Milan, Italy) or Tryptic Soy Agar plates (TSA, Biolife, Milan, Italy). Peptides were tested at a final concentration C = 0.128, 0.064, 0.032 mg/mL, in the presence or absence of ZnCl2 or CuCl2, at a M:L molar ratio 0.9:1. Briefly, all the microbes were expanded in TSB at 37 °C under agitation for 12 h and then sub-cultured by 1:10 dilution in TSB under the same conditions until reaching OD600nm = 0.3–0.4, as measured by spectrophotometric reading using a GENESYS 10S UV–Vis spectrophotometer (Thermo Scientific, Milan, Italy), corresponding to 0.9–1.2 × 10^7 colony forming units (CFU) per mL, 1.5–2 × 10^8 CFU/mL and 2.4–3.2 × 10^8 CFU/mL, for C. albicans, S. aureus and E. coli respectively. The cultures were then centrifuged at 4500 rpm for 10 min in a SL 8 centrifuge (TX-150 Rotor) (Thermo Scientific, Milan, Italy), and the cellular pellets were washed with PBS pH 5.4. Pelletized cultures were then suspended in 10 mL of PBS pH 5.4, then the suspensions were diluted to a final concentration of 10^4 CFU/mL. Aliquots of 100 µl (corresponding to 10^3 CFU) were seeded in each well of a 96-wells plate. 3 µl of TSB at pH 5.4 were added to each well to obtain a final 1.5% TSB concentration in the culture medium. Peptides were serially diluted in PBS pH 5.4 to C = 0.257, 0.128, and 0.064 mg/mL. ZnCl2 and CuCl2 solutions were added where requested to obtain a M:L ratio 0.9:1. 100 µl of the prepared peptides ± ZnCl2/CuCl2 solutions were then added to each well, obtaining the final 0.128, 0.064 and 0.032 mg/mL peptide concentrations in a total 0.2 mL volume. PBS alone and PBS + ZnCl2/CuCl2 solutions were included as controls. The plates were incubated at 37 °C on a platform rocker with slow stirring for 3 and 24 h. At the end of the incubation times, 100 µl aliquots were taken from each sample and diluted in PBS pH 5.4 to be seeded on TSA plates. Specifically, aliquots were diluted 1:10 at 3 h, and 1:200, 1:100,000 and 1:10 at 24 h, for C. albicans, E. coli, and S. aureus respectively. After incubation for 24 h at 37 °C, grown CFUs were enumerated. Samples were assayed in triplicate in two independent experiments. Student’s t-test was used for the evaluation of significance in biological tests; a p value ≤ 0.05 was considered significant.
# [2] = test system: C. albicans (ATCC 10231); test: In vitro antifungal CFU assay; type: cell-based, Candida albicans; settings: pH 5.4
# Method: as §1
# [3] = test system: S. aureus (ATCC 25293); test: In vitro anti-S. aureus CFU assay; type: cell-based, Staphylococcus aureus; settings: 3 h, pH 5.4; for mean CFU number ± S.D.: metal salt alone, one value per peptide panel
# Method: as §1
# [4] = same concentration as used with 0.032 mg/mL peptide, 3 h
# [5] = same concentration as used with 0.032 mg/mL peptide, 24 h
# [6] = same concentration as used with 0.064 mg/mL peptide, 3 h
# [7] = same concentration as used with 0.064 mg/mL peptide, 24 h
# [8] = same concentration as used with 0.128 mg/mL peptide, 3 h
# [9] = metal salt alone, same concentration as used with 0.032 mg/mL peptide, 24 h, one value per peptide panel
# [10] = metal salt alone, same concentration as used with 0.064 mg/mL peptide, 24 h, one value per peptide panel
# [11] = same concentration as used with 0.032 mg/mL peptide
# [12] = same concentration as used with 0.064 mg/mL peptide
structure (smiles),measurement,setting,value
"[Cl-].[Cl-].[Zn+2] [ZnCl2, reference compound]",CFU decrease/increase with respect to untreated controls,[1]; [4],-47% and -45%
same,mean CFU number ± S.D.,[1]; [4],449 ± 74 CFU and 559 ± 25 CFU
same,CFU decrease/increase with respect to untreated controls,[1]; [5],-1%
same,mean CFU number ± S.D.,[1]; [5],170 ± 14 CFU and 238 ± 16 CFU
same,mean CFU number ± S.D.,[1]; [6],249 ± 11 CFU and 329 ± 11 CFU
same,CFU decrease/increase with respect to untreated controls,[1]; [7],-3% and -5%
same,mean CFU number ± S.D.,[1]; [7],163 ± 47 CFU and 235 ± 6 CFU
same,CFU decrease/increase with respect to untreated controls,[1]; [8],-95% and -91%
same,mean CFU number ± S.D.,[1]; [8],49 ± 8 CFU and 72 ± 21 CFU
same,mean CFU number ± S.D.,"[1]; same concentration as used with 0.128 mg/mL peptide, 24 h",168 ± 22 CFU
same,"CFU number reduction by the metal salt alone, over all performed assays",[2]; 3 h,up to 64.9%
same,"CFU number reduction by the metal salt alone, over all performed assays",[2]; 24 h,≤ 94%
same,mean CFU number ± S.D.,"[2]; metal salt alone, same concentration as used with 0.032 mg/mL peptide, 3 h, one value per peptide panel",94.2 ± 23 CFU and 91 ± 25 CFU and 107 ± 13 CFU
same,mean CFU number ± S.D.,[2]; [9],"1,915 ± 234 CFU and 1,797 ± 162 CFU and 2,249 ± 145 CFU and 1,413.7 ± 348 CFU"
same,mean CFU number ± S.D.,"[2]; metal salt alone, same concentration as used with 0.064 mg/mL peptide, 3 h, one value per peptide panel",49 ± 2 CFU and 87 ± 6 CFU and 75.33 ± 25 CFU and 98 ± 15 CFU
same,CFU decrease/increase with respect to untreated controls,[2]; [10],-36% and -40% and -38%
same,mean CFU number ± S.D.,"[2]; metal salt alone, same concentration as used with 0.128 mg/mL peptide, 3 h, one value per peptide panel",32 ± 9 CFU and 62 ± 6 CFU and 53 ± 14 CFU and 34.7 ± 9 CFU
same,"CFU reduction by the metal salt alone compared to controls, over all performed assays",[3],up to 77%
same,mean CFU number ± S.D.,[3]; [11],178 ± 60 CFU and 121 ± 11 CFU and 125 ± 60 CFU
same,mean CFU number ± S.D.,[3]; [12],84 ± 13 CFU and 100 ± 11 CFU
"[Cl][Cu][Cl] [CuCl2, reference compound]","CFU number reduction by the metal salt alone, over all performed assays",[1]; 3 h,up to 96%
same,"CFU number reduction by the metal salt alone, over all performed assays",[1]; 24 h,up to 96%
same,CFU decrease/increase with respect to untreated controls,[1]; [4],-36% and -42%
same,mean CFU number ± S.D.,[1]; [4],474 ± 91 CFU and 665 ± 96 CFU
same,mean CFU number ± S.D.,[1]; [5],160 ± 42 CFU and 256 ± 3 CFU
same,mean CFU number ± S.D.,[1]; [6],255 ± 23 CFU and 383 ± 82 CFU
same,mean CFU number ± S.D.,[1]; [7],93 ± 28 CFU and 47 ± 28 CFU
same,CFU decrease/increase with respect to untreated controls,[1]; [8],-95% and -92%
same,mean CFU number ± S.D.,[1]; [8],57 ± 4 CFU and 64 ± 24 CFU
same,mean CFU number ± S.D.,[2]; [9],"2,184 ± 195 CFU and 1,671 ± 25 CFU and 2,558 ± 367 CFU and 1,800 ± 195 CFU"
same,mean CFU number ± S.D.,[2]; [10],"2,152 ± 228 CFU and 1,697 ± 81 CFU and 2,456 ± 236 CFU and 1,820 ± 125 CFU"
same,mean CFU number ± S.D.,"[2]; metal salt alone, same concentration as used with 0.128 mg/mL peptide, 24 h, one value per peptide panel","1,816 ± 109 CFU and 2,139 ± 55 CFU and 1,360 ± 68 CFU and 1,946 ± 96 CFU"
same,mean CFU number ± S.D.,[3]; [11],201 ± 25 CFU and 178 ± 2 CFU
same,mean CFU number ± S.D.,[3]; [12],170 ±17 CFU and 188 ± 62 CFU
same,mean CFU number ± S.D.,[3]; same concentration as used with 0.128 mg/mL peptide,201 ± 23 CFU and 159 ± 22 CFU

# — article PMC10600247, “Impact of C- and N-terminal protection on the stability, metal chelation and antimicrobial properties of calcitermin” (Scientific Reports, 2023)
